Results published in US20250250231A1, “NOVEL SUBSTITUTED 4-AMINO-4-OXO-BUT-2-ENYL DERIVATIVES, PROCESSES FOR THEIR PREPARATION AND THERAPEUTIC USES THEREOF” (SANOFI, priority 2022, published 2025).

Experiments:
Assay type in all cases: cell-based
HCC1428-LTED cells = assay: In vitro anti-proliferation assay (CellTiter-Glo viability), HCC1428-LTED cells; settings: Homo sapiens, HCC1428, 192 h, viability on day 8, relative IC50, read-out: HCC 1428 IC50
Procedure: (§1) Test: In vitro anti-proliferation assay
(§2) Said test involves measuring the in vitro anti-proliferation activity of the compounds of the Table 1a.
(§3) The measurements of the anti-proliferation activities were made using MCF7-WT (ATCC), MCF7-Y537S and HCC1428-LTED cells as described hereunder.
(§4) On Day 1, MCF7-WT and MCF7-Y537S (Mol Cancer Ther. 2021 20(2):250-262), and HCC1428-LTED (J Clin Invest. 2010; 120(7):2406-2413) cells, were seeded at 2000 (WT and LTED) and 500 (Y537S) cells/well in phenol red free IMEM (Corning, 110-026-CV) with 5% Charcoal stripped-FBS and incubated overnight 37° C. and 5% CO2.
(§5) On day 2, compounds were tested in triplicate in 10-point dose response (1:3 serial dilutions with a top concentration starting 300 nM); DMSO for upper limit (negative control) and staurosporine (1 uM) for lower limit (positive control) were also included. MCF7-WT cells were then supplemented with final 0.1 nM b-estradiol. After treating the cells, the assay plates were transferred back in the incubator at 37° C. and 5% CO2.
(§6) On day 8, cell viability was measured per vendor recommendations (CellTiter-Glo, Promega). Relative IC50 measurements were calculated as follow using a 4-parameter logistic derived from Levenburg Marquardt algorithm (IDBS XL Model 205 fit within A-base).

MCF7-Y537S cells = assay: In vitro anti-proliferation assay (CellTiter-Glo viability), MCF7-Y537S cells; settings: viability on day 8, relative IC50
Procedure: as §1, §2, §3, §4, §5, §6

MCF7-WT cells = assay: In vitro anti-proliferation assay (CellTiter-Glo viability), MCF7-WT cells; settings: MCF7-WT cells supplemented with 0.1 nM b-estradiol, viability on day 8, relative IC50
Procedure: as §1, §2, §3, §4, §5, §6

IC50 (HCC1428-LTED cells) [nM]	IC50 (MCF7-Y537S cells; Homo sapiens, MCF7, 192 h) [nM]	IC50 (MCF7-WT cells; Homo sapiens, MCF7, 192 h) [nM]	IC50 (MCF7-Y537S cells) [nM]	IC50 (MCF7-WT cells) [nM]	SMILES
4.4	≥ 500	160			CN(C)C(=O)/C=C/CN1CC[C@H](Oc2ccc(C3=C(c4ccc(Cl)cc4Cl)CCOc4cc(C(=O)O)ccc43)cc2)C1 [Compound 24, (S,E)-4-(2,4-dichlorophenyl)-5-(4-((1-(4-(dimethylamino)-4-oxobut-2-en-1-yl)pyrrolidin-3-yl)oxy)phenyl)-2,3-dihydrobenzo[b]oxepine-8-carboxylic acid]
0.3			59	26	CN(C)C(=O)/C=C/CN1CCC(Cc2ccc(C3=C(c4ccc(Cl)cc4Cl)CCCc4cc(C(=O)O)ccc43)cc2)C1 (single isomer, unassigned; isomer 1) [Compound 18, (E)-8-(2,4-dichlorophenyl)-9-(4-((1-(4-(dimethylamino)-4-oxobut-2-en-1-yl)pyrrolidin-3-yl)methyl)phenyl)-6,7-dihydro-5H-benzo[7]annulene-3-carboxylic acid, Isomer 1]
0.2	87	3			Cc1ccc(C2=C(c3ccc(O[C@H]4CCN(C/C=C/C(=O)N(C)C)C4)cc3)c3ccc(C(=O)O)cc3CCC2)c(C)c1 [Compound 8, (S,E)-9-(4-((1-(4-(dimethylamino)-4-oxobut-2-en-1-yl)pyrrolidin-3-yl)oxy)phenyl)-8-(2,4-dimethylphenyl)-6,7-dihydro-5H-benzo[7]annulene-3-carboxylic acid]
1	138	10			CN(C)C(=O)/C=C/CN1CC[C@@H](Nc2ccc(C3=C(c4ccc(Cl)cc4Cl)CCCc4cc(C(=O)O)ccc43)cc2)C1 [Compound 17, (R,E)-8-(2,4-dichlorophenyl)-9-(4-((1-(4-(dimethylamino)-4-oxobut-2-en-1-yl)pyrrolidin-3-yl)amino)phenyl)-6,7-dihydro-5H-benzo[7]annulene-3-carboxylic acid]
0.3	≥ 500	8			COc1ccc(C2=C(c3ccc(O[C@H]4CCN(C/C=C/C(=O)N(C)C)C4)cc3)c3ccc(C(=O)O)cc3CCC2)c(F)n1 [Compound 10, (S,E)-9-(4-((1-(4-(dimethylamino)-4-oxobut-2-en-1-yl)pyrrolidin-3-yl)oxy)phenyl)-8-(2-fluoro-6-methoxypyridin-3-yl)-6,7-dihydro-5H-benzo[7]annulene-3-carboxylic acid]
0.4	193	21			CN(C)C(=O)/C=C/CN1CC[C@H](Oc2ccc(C3=C(c4ccc(Cl)cc4Cl)CCCc4ccccc43)cc2)C1 [Compound 26, (S,E)-4-(3-(4-(8-(2,4-dichlorophenyl)-6,7-dihydro-5H-benzo[7]annulen-9-yl)phenoxy)pyrrolidin-1-yl)-N,N-dimethylbut-2-enamide]
0.6	184	11			CN(C)C(=O)/C=C/CNCCOc1ccc(C2=C(c3ccc(Cl)cc3Cl)CCCc3cc(C(=O)O)ccc32)cc1 [Compound 22, (E)-8-(2,4-dichlorophenyl)-9-(4-(2-((4-(dimethylamino)-4-oxobut-2-en-1-yl)amino)ethoxy)phenyl)-6,7-dihydro-5H-benzo[7]annulene-3-carboxylic acid]
0.03	23	26			CN(C)C(=O)/C=C/CN1CC[C@H](Oc2ccc(C3=C(c4ccc(Cl)cc4Cl)CCCc4cc(O)ccc43)cc2)C1 [Compound 23, (S,E)-4-(3-(4-(8-(2,4-dichlorophenyl)-3-hydroxy-6,7-dihydro-5H-benzo[7]annulen-9-yl)phenoxy)pyrrolidin-1-yl)-N,N-dimethylbut-2-enamide]
0.7	≥ 500	14			CN(C)C(=O)/C=C/CN1CC[C@H](Oc2ccc(C3=C(c4ccc(Cl)cc4Cl)CCCc4cc(C(=O)O)ccc43)cc2)C1 [Compound 1, (S,E)-8-(2,4-dichlorophenyl)-9-(4-((1-(4-(dimethylamino)-4-oxobut-2-en-1-yl)pyrrolidin-3-yl)oxy)phenyl)-6,7-dihydro-5H-benzo[7]annulene-3-carboxylic acid]
33	174	37			CN(C)C(=O)/C=C/CN1CC[C@H](Nc2ccc(C3=C(c4ccc(Cl)cc4Cl)CCCc4cc(C(=O)O)ccc43)cc2)C1 [Compound 16, (S,E)-8-(2,4-dichlorophenyl)-9-(4-((1-(4-(dimethylamino)-4-oxobut-2-en-1-yl)pyrrolidin-3-yl)amino)phenyl)-6,7-dihydro-5H-benzo[7]annulene-3-carboxylic acid]
0.4	≥ 500	10			CN(C)C(=O)/C=C/CN1CC[C@H](Oc2ccc(C3=C(c4ccc(F)cc4Cl)CCCc4cc(C(=O)O)ccc43)cc2)C1 [Compound 2, (S,E)-8-(2-chloro-4-fluorophenyl)-9-(4-((1-(4-(dimethylamino)-4-oxobut-2-en-1-yl)pyrrolidin-3-yl)oxy)phenyl)-6,7-dihydro-5H-benzo[7]annulene-3-carboxylic acid]
2	≥ 500	28			Cc1ccc(C2=C(c3ccc(O[C@H]4CCN(C/C=C/C(=O)N(C)C)C4)cc3)c3ccc(C(=O)O)cc3CCC2)cc1Cl [Compound 7, (S,E)-8-(3-chloro-4-methylphenyl)-9-(4-((1-(4-(dimethylamino)-4-oxobut-2-en-1-yl)pyrrolidin-3-yl)oxy)phenyl)-6,7-dihydro-5H-benzo[7]annulene-3-carboxylic acid]
2	≥ 500	22			CN(C)C(=O)/C=C/CN1CC[C@H](Oc2ccc(C3=C(c4cccc(F)c4Cl)CCCc4cc(C(=O)O)ccc43)cc2)C1 [Compound 4, (S,E)-8-(2-chloro-3-fluorophenyl)-9-(4-((1-(4-(dimethylamino)-4-oxobut-2-en-1-yl)pyrrolidin-3-yl)oxy)phenyl)-6,7-dihydro-5H-benzo[7]annulene-3-carboxylic acid]
5	186	53			CN(C)C(=O)/C=C/CN1CC[C@@H](Oc2ccc(C3=C(c4ccc(Cl)cc4Cl)CCCc4cc(C(=O)O)ccc43)cc2)C1 [Compound 15, (R,E)-8-(2,4-dichlorophenyl)-9-(4-((1-(4-(dimethylamino)-4-oxobut-2-en-1-yl)pyrrolidin-3-yl)oxy)phenyl)-6,7-dihydro-5H-benzo[7]annulene-3-carboxylic acid]
0.2	76	3			Cc1ccc(C2=C(c3ccc(O[C@H]4CCN(C/C=C/C(=O)N(C)C)C4)cc3)c3ccc(C(=O)O)cc3CCC2)c(F)c1 [Compound 5, (S,E)-9-(4-((1-(4-(dimethylamino)-4-oxobut-2-en-1-yl)pyrrolidin-3-yl)oxy)phenyl)-8-(2-fluoro-4-methylphenyl)-6,7-dihydro-5H-benzo[7]annulene-3-carboxylic acid]
0.2	87	4			CN(C)C(=O)/C=C/CN1CC[C@H](Oc2ccc(C3=C(c4ccccc4Cl)CCCc4cc(C(=O)O)ccc43)cc2)C1 [Compound 9, (S,E)-8-(2-chlorophenyl)-9-(4-((1-(4-(dimethylamino)-4-oxobut-2-en-1-yl)pyrrolidin-3-yl)oxy)phenyl)-6,7-dihydro-5H-benzo[7]annulene-3-carboxylic acid]
0.7	167	24			CN(C)C(=O)/C=C/CN1CC[C@H](Oc2ccc(C3=C(c4ccc(Cl)cc4F)CCCc4cc(C(=O)O)ccc43)cc2)C1 [Compound 3, (S,E)-8-(4-chloro-2-fluorophenyl)-9-(4-((1-(4-(dimethylamino)-4-oxobut-2-en-1-yl)pyrrolidin-3-yl)oxy)phenyl)-6,7-dihydro-5H-benzo[7]annulene-3-carboxylic acid]
2.1	≥ 500	28			CN(C)C(=O)/C=C/CN1CC(Nc2ccc(C3=C(c4ccc(Cl)cc4Cl)CCCc4cc(C(=O)O)ccc43)cc2)C1 [Compound 21, (E)-8-(2,4-dichlorophenyl)-9-(4-((1-(4-(dimethylamino)-4-oxobut-2-en-1-yl)azetidin-3-yl)amino)phenyl)-6,7-dihydro-5H-benzo[7]annulene-3-carboxylic acid]
0.1	204	2			Cc1ccc(C2=C(c3ccc(O[C@H]4CCN(C/C=C/C(=O)N(C)C)C4)cc3)c3ccc(C(=O)O)cc3CCC2)c(Cl)c1 [Compound 11, (S,E)-8-(2-chloro-4-methylphenyl)-9-(4-((1-(4-(dimethylamino)-4-oxobut-2-en-1-yl)pyrrolidin-3-yl)oxy)phenyl)-6,7-dihydro-5H-benzo[7]annulene-3-carboxylic acid]
0.02	33	2.9			CN(C)C(=O)/C=C/CN1CC[C@H](Oc2ccc(C3=C(c4ccc(Cl)cc4Cl)CCSc4cc(O)ccc43)cc2)C1 [Compound 27, (S,E)-4-(3-(4-(4-(2,4-dichlorophenyl)-8-hydroxy-2,3-dihydrobenzo[b]thiepin-5-yl)phenoxy)pyrrolidin-1-yl)-N,N-dimethylbut-2-enamide]
